Measurements as given in patent publication US4812456A, “1-(N-(2-alkylthio-10H-phenothiazin-10-yl)alkyl)-4-benzoylpiperidines and pharmaceutical use” (Hoechst-Roussel Pharmaceuticals Inc., priority 1987, dated 1989).

What was measured:
mice [1] = test: phenyl-p-quinone writhing assay in mice (analgesic activity, modified); format: in vivo, male mice (Charles River, CD-1); details: Mus musculus, sc, tested at peak time, estimated dose at which 50% inhibition of writhing is produced, computer linear regression
Description: The procedure employed to determine analgesic utility is a modification of the phenyl-p-quinone writhing assay in mice, a standard assay for analgesia (Proc. Soc. Exptl. Bio. Med., 95 729 (1957)]. In the modified procedure phenyl-p-benzoquinone (Eastman, 12.5 mg) is dissolved in 5 ml of 95% ethanol and the solution is diluted to a total volume of 100 ml with distilled water. The solution is administered to the subject mice […] at a dose of 10 ml per kg of body weight. A characteristic "writh", an inward rotation of one or more feet with twisting and turning of the trunk, drawing in of the abdominal wall, lordosis and arching of the back, is produced.
A total of 28 male mice (Charles River, CD-1), weighing 18 to 30 grams, are employed for a time response. The subject animals receive food and water ad libitum. Test compounds are dissolved in distilled water, or suspended in distilled water containing one drop of a suitable surfactant, such as Tween-80.
Four groups of five animals (20 animals) are given the test compound subcutaneously at 15, 30, 45 and 60 minutes prior to administration of the phenyl-p-quinone. Four control groups of 2 animals (8 animals) receive an equal volume of the vehicle. […] The number of writhes for each animal is recorded. […]

mice [2] = test: climbing mice assay (apomorphine climbing, antipsychotic activity); format: in vivo, CK-1 male mice; details: Mus musculus, ip, compound 30 minutes prior to apomorphine 1.5 mg/kg subcutaneously, climbing scores at 10, 20 and 30 minutes, linear regression, read-out: Anti-Psychotic Activity (ED50)
Source text: The subject CK-1 male mice (23-27 grams) are group-housed under standard laboratory conditions. The mice are individually placed in wire mesh stick cages (4"×4" by 10") and are allowed one hour for adaptation and exploration of the new environment.
Mice consistently climbing before the injection of apomorphine are discarded.
With full-developed apomorphine climbing, the animals are hanging onto the cage walls, rather motionless, over longer periods of time. By contrast, climbs due to mere motor stimulation usually last only a few seconds.

SMILES | ED50 (mice [1]) | ED50 (mice [2])
CSc1ccc2c(c1)N(CCCN1CCC(C(=O)c3ccc(F)cc3)CC1)c1ccccc1S2.O=C(O)/C=C/C(=O)O [4-(4-Fluorobenzoyl)-1-[3-(2-methylthio-10H-phenothiazin-10-yl)propyl]piperidine fumarate] | 6.1 mg/kg | 1.4 mg/kg
CC(C)=CCN1CCC2(C)c3cc(O)ccc3CC1C2C (stereo not shown) [Pentazocine] | 1.3 mg/kg | –
CSc1ccc2c(c1)N(CCC1CCCCN1C)c1ccccc1S2 (stereo not shown) [Thioridazine] | – | 4.1 mg/kg
